Measured values reported in patent publication US4178442A, “Novel cinnamoyles piperazines and homopiperazines, the method of preparing them and their application in therapeutics” (Delalande S. A., priority 1977, dated 1979).
Where two headings read alike, the source gives them in different places.

Experiments:
anaesthetized dog = test: Antiangorous activity on anaesthetized dog: consumption of oxygen in the left ventricule and cardiac effort (KATZ's index); assay type: in vivo; settings: for inhibition in vivo at […]: 0.15 mg/kg i.v. slow perfusion
Method: The antiangorous activity was tested on an anaesthetized dog (sodium pentobarbital 30 mg/kg/i.v.).
The consumption of oxygen in the left ventricule was estimated by the product of the coronary venous flow and the coronary arteriovenous difference in oxygen (% volume).
The coronary venous flow was measured at the coronary venous sinus by means of a modified Morawitz cannula, introduced under radioscopic control.
The cardiac effort was estimated according to KATZ's index, by the product of the average arterial pressure and the cardiac frequency.
The cardiac frequency was estimated from the electrocardiogram recorded with D2 derivation.
It should be noted that the compounds tested were injected intravenously with slow perfusion.

in vivo = settings: for mortality: read-out: Toxicity (Mortality); for LD50: read-out: Toxicity: LD50
Excerpt: *LD50 or percentage of mortality which is given between brackets

[1] = 0.625 mg/kg i.v. slow perfusion
[2] = Canis lupus familiaris, iv, 0.625 mg/kg i.v. slow perfusion, read-out: Diminution in consumption of O2
[3] = Canis lupus familiaris, iv, 0.625 mg/kg i.v. slow perfusion, read-out: Diminution in the cardiac effort (IK)
[4] = Canis lupus familiaris, iv, 2.5 mg/kg i.v. slow perfusion, read-out: Diminution in consumption of O2
[5] = Canis lupus familiaris, iv, 2.5 mg/kg i.v. slow perfusion, read-out: Diminution in the cardiac effort (IK)
[6] = Canis lupus familiaris, iv, read-out: Diminution in consumption of O2
[7] = Canis lupus familiaris, iv, read-out: Diminution in the cardiac effort (IK)

Compound | Diminution in consumption of O2: in time (anaesthetized dog; 2.5 mg/kg i.v. slow perfusion) [min] | Diminution in the cardiac effort (IK): in time (anaesthetized dog; 2.5 mg/kg i.v. slow perfusion) [min] | inhibition in vivo at 2.5 mg/kg (anaesthetized dog; [4]) [%] | inhibition in vivo at 2.5 mg/kg (anaesthetized dog; [5]) [%] | LD50 (in vivo; iv) [mg/kg] | other results
COc1cc(/C=C/C(=O)N2CCN(CC(O)COc3ccc(NC(=O)C(C)(C)C)c4c3OCCO4)CC2)cc(OC)c1OC (stereo not shown) [770 614] |  |  |  |  |  | Diminution in consumption of O2: in time (anaesthetized dog; [1]): 30 min; Diminution in the cardiac effort (IK): in time (anaesthetized dog; [1]): 30 min; inhibition in vivo at 0.625 mg/kg (anaesthetized dog; [2]): 49%; inhibition in vivo at 0.625 mg/kg (anaesthetized dog; [3]): 45%; mortality (in vivo; po, p.o.: 2000 mg/kg): 11%
COc1cc(/C=C/C(=O)N2CCN(CC(O)COc3cccc4c3CCCC4=O)CC2)cc(OC)c1OC (stereo not shown) [760 986] | 60 | 60 | 61 | 27 | 218 | 
CCc1ccc(OCC(O)CN2CCN(C(=O)/C=C/c3cc(OC)c(OC)c(OC)c3)CC2)c2c1OCCO2 (stereo not shown) [770 142] |  |  |  |  | 116 | Diminution in consumption of O2: in time (anaesthetized dog; 1.1 mg/kg i.v. slow perfusion): 30 min; inhibition in vivo at 1.1 mg/kg (anaesthetized dog; Canis lupus familiaris, iv, 1.1 mg/kg i.v. slow perfusion, read-out: Diminution in consumption of O2): 29%
COc1cc(/C=C/C(=O)N2CCN(CC(O)COc3ccc([N+](=O)[O-])cc3Cl)CC2)cc(OC)c1OC (stereo not shown) [771 124] | 15 | 23 | 34 | 13 | 270 | 
COc1cc(/C=C/C(=O)N2CCN(CC(O)COc3ccc(NC(=O)c4ccccc4)c4c3OCCO4)CC2)cc(OC)c1OC (stereo not shown) [770 529] |  |  |  |  |  | Diminution in consumption of O2: in time (anaesthetized dog; [1]): 30 min; Diminution in the cardiac effort (IK): in time (anaesthetized dog; [1]): 30 min; inhibition in vivo at 0.625 mg/kg (anaesthetized dog; [2]): 56%; inhibition in vivo at 0.625 mg/kg (anaesthetized dog; [3]): 29%; mortality (in vivo; po, p.o.: 2000 mg/kg): 22%
COc1cc(/C=C/C(=O)N2CCN(CC(O)COc3ccc(NC(C)=O)c4c3OCCO4)CC2)cc(OC)c1OC (stereo not shown) [760 868] |  |  |  |  |  | Diminution in consumption of O2: in time (anaesthetized dog; 0.12 mg/kg i.v. slow perfusion): 30 min; Diminution in the cardiac effort (IK): in time (anaesthetized dog; 0.12 mg/kg i.v. slow perfusion): 30 min; inhibition in vivo at 0.12 mg/kg (anaesthetized dog; Canis lupus familiaris, iv, 0.12 mg/kg i.v. slow perfusion, read-out: Diminution in consumption of O2): 33%; inhibition in vivo at 0.12 mg/kg (anaesthetized dog; Canis lupus familiaris, iv, 0.12 mg/kg i.v. slow perfusion, read-out: Diminution in the cardiac effort (IK)): 18%; mortality (in vivo; iv, 215 mg/kg i.v.): 40%
COc1cc(/C=C/C(=O)N2CCN(CC(O)COc3ccc(C(C)=O)c4c3OCCO4)CC2)cc(OC)c1 (stereo not shown) [770 538] | 15 | 25 | 54 | 28 | 198 | 
CCCNC(=O)Nc1ccc(OCC(O)CN2CCN(C(=O)/C=C/c3cc(OC)c(OC)c(OC)c3)CC2)c2c1OCCO2 (stereo not shown) [770 483] |  |  |  |  |  | inhibition in vivo at […] (anaesthetized dog; [6]): 74%; inhibition in vivo at […] (anaesthetized dog; [7]): 16%; mortality (in vivo; po, p.o.: 2000 mg/kg): 0%
COc1cc(/C=C/C(=O)N2CCN(CC(O)COc3ccc(CC#N)c4c3OCCO4)CC2)cc(OC)c1OC (stereo not shown) [770 188] |  |  |  |  | 219 | 
COc1cc(/C=C/C(=O)N2CCCN(CC(O)COc3ccc(NC(C)=O)c4c3OCCO4)CC2)cc(OC)c1OC (stereo not shown) [780 272] | 90 | 90 | 40 | 51 |  | 
COc1cc(/C=C/C(=O)N2CCN(CC(O)COc3ccc(C(C)=O)c4c3OCCCO4)CC2)cc(OC)c1OC (stereo not shown) [780 241] |  |  |  |  |  | inhibition in vivo at […] (anaesthetized dog; [6]): 30%; inhibition in vivo at […] (anaesthetized dog; [7]): 13%
COc1ccc(NC(=O)Nc2ccc(OCC(O)CN3CCN(C(=O)/C=C/c4cc(OC)c(OC)c(OC)c4)CC3)c3c2OCCO3)cc1 (stereo not shown) [780 223] | 90 | 90 | 62 | 35 |  | 
CCCC(=O)c1ccc(OCC(O)CN2CCN(C(=O)/C=C/c3cc(OC)c(OC)c(OC)c3)CC2)cc1 (stereo not shown) [780 302] | 30 | 30 | 46 | 14 |  | 
COc1cc(/C=C/C(=O)N2CCN(CCCOc3ccc(NC(C)=O)c4c3OCCO4)CC2)cc(OC)c1OC [771 172] | 15 | 23 | 25 | 29 |  | 
